# Molecular target: T1, Human Factor D (Homo sapiens, UniProt P00746)
# T1 construct: purified from human serum; purchased Complement Technology, Inc; host or cells: human serum (natural protein, not recombinant)
# Assay: Human Factor D Assay
# Type: biochemical
# Conditions: not given
# Method: Example 8. Human Factor D Assay
# Human Factor D (purified from human serum, Complement Technology, Inc.) at 80 nM final concentration is incubated with test compound at various concentrations for 5 minutes at room temperature in 50 mM Tris, 1M NaCl, pH 7.5. A synthetic substrate Z-L-Lys-SBzl and DTNB (Ellman's reagent) are added to final concentrations of 100 μM each. Absorbance at 405 nm (A405) is recorded at 30 second intervals for 30 minutes using a microplate spectrophotometer. IC50 values are calculated by nonlinear regression of complement Factor D reaction rates as a function of test compound concentration.
# T1 sequence (P00746 26-253): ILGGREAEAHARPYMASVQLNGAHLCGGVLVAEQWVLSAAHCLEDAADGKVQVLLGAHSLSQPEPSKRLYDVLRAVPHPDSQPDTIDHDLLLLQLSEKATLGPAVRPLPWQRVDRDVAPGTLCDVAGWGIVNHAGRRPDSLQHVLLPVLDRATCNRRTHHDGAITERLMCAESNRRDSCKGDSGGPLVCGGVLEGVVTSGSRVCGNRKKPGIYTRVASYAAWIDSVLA
row,SMILES,IC50
1,"CC(=O)c1cn(CC(=O)N2C[C@H](F)C[C@H]2C(=O)NCc2cccc(Cl)c2F)c2cc(OCP(=O)(N[C@@H](C)C(=O)OC(C)C)N[C@@H](C)C(=O)OC(C)C)ccc12 [Compound 24, (2S,2′S)-isopropyl-2,2′-(((3-acetyl-1-(2-((2S,4R)-2-(3-chloro-2-fluorobenzylcarbamoyl)-4-fluoropyrrolidin-1-yl)-2-oxoethyl)-1H-indol-6-yloxy)methyl)phosphoryl)bis(azanediyl) dipropanoate]",< 1000 nM

# Same assay, conditions: Table 1; Human Factor D 80 nM, substrate Z-L-Lys-SBzl; read-out: IC50
row,SMILES,IC50
1,"CC(=O)c1cn(CC(=O)N2C[C@H](F)C[C@H]2C(=O)NCc2cccc(Cl)c2F)c2cc(OCP(=O)(O)O)ccc12 [Compound 8, (((3-Acetyl-1-(2-((2S,4R)-2-((3-chloro-2-fluorobenzyl)carbamoyl)-4-fluoropyrrolidin-1-yl)-2-oxoethyl)-1H-indol-6-yl)oxy)methyl)phosphonic acid]",< 1000 nM
2,"CCOP(=O)(CC)COc1ccc2c(C(C)=O)cn(CC(=O)N3C[C@H](F)C[C@H]3C(=O)NCc3cccc(Cl)c3F)c2c1 (stereo partly drawn) [Compound 14, Ethyl (((3-acetyl-1-(2-((2S,4R)-2-((3-chloro-2-fluorobenzyl)carbamoyl)-4-fluoropyrrolidin-1-yl)-2-oxoethyl)-1H-indol-6-yl)oxy)methyl)(ethyl)phosphinate]",< 1000 nM
3,"CC(=O)c1cn(CC(=O)N2[C@@H]3C[C@@H]3C[C@H]2C(=O)NCc2cccc(Cl)c2F)c2cc(OCC3CC3)ccc12 [Compound 3, (1R,3S,5R)-2-(2-(3-acetyl-6-(cyclopropylmethoxy)-1H-indol-1-yl)acetyl)-N-(3-chloro-2-fluorobenzyl)-2-azabicyclo[3.1.0]hexane-3-carboxamide]",< 1000 nM
4,"CC(=O)c1cn(CC(=O)N2C[C@H](F)C[C@H]2C(=O)NCc2cccc(Cl)c2F)c2cc(OCS(N)(=O)=O)ccc12 [Compound 17, (2S,4R)-1-(2-(3-acetyl-6-(sulfamoylmethoxy)-1H-indol-1-yl)acetyl)-N-(3-chloro-2-fluorobenzyl)-4-fluoropyrrolidine-2-carboxamide]",< 1000 nM
5,"CC(=O)c1cn(CC(=O)N2C[C@H](F)C[C@H]2C(=O)Nc2cccc(Oc3ccccc3)c2)c2cc(OCP(=O)(O)O)ccc12 [Compound 26, (3-acetyl-1-(2-((2S,4R)-4-fluoro-2-(3-phenoxyphenylcarbamoyl)pyrrolidin-1-yl)-2-oxoethyl)-1H-indol-6-yloxy)methylphosphonic acid]",< 1000 nM
6,"CCC(=O)OC(OP(=O)(COc1ccc2c(C(C)=O)cn(CC(=O)N3C[C@H](F)C[C@H]3C(=O)NCc3cccc(Cl)c3F)c2c1)OC(OC(=O)CC)C(C)C)C(C)C (stereo partly drawn) [Compound 23, 1,1′-(((3-acetyl-1-(2-((2S,4R)-2-(3-chloro-2-fluorobenzylcarbamoyl)-4-fluoropyrrolidin-1-yl)-2-oxoethyl)-1H-indol-6-yloxy)methyl)phosphoryl)bis(oxy)bis(2-methylpropane-1,1-diyl) dipropionate]",< 1000 nM
7,"CC(=O)c1cn(CC(=O)N2C[C@H](F)C[C@H]2C(=O)Nc2cccc(-c3ccccc3Cl)c2F)c2cc(Oc3ncccn3)ccc12 [Compound 32, (2S,4R)-1-(2-(3-Acetyl-6-(pyrimidin-2-yloxy)-1H-indol-1-yl)acetyl)-N-(2′-chloro-2-fluoro-[1,1′-biphenyl]-3-yl)-4-fluoropyrrolidine-2-carboxamide]",< 1000 nM
8,"CC(=O)c1cn(CC(=O)N2C[C@H](F)C[C@H]2C(=O)Nc2cccc(Br)n2)c2ccc(Oc3ncc(C)cn3)cc12 [Compound 41, (2S,4R)-1-(2-(3-acetyl-5-(5-methylpyrimidin-2-yloxy)-1H-indol-1-yl)acetyl)-N-(6-bromopyridin-2-yl)-4-fluoropyrrolidine-2-carboxamide]",< 1000 nM
9,"CCOP(=O)(COc1ccc2c(C(C)=O)cn(CC(=O)N3C[C@H](F)C[C@H]3C(=O)NCc3cccc(Cl)c3F)c2c1)OCC [Compound 7, Diethyl(((3-acetyl-1-(2-((2S,4R)-2-((3-chloro-2-fluorobenzyl)carbamoyl)-4-fluoropyrrolidin-1-yl)-2-oxoethyl)-1H-indol-6-yl)oxy)methyl)phosphonate]",< 1000 nM
10,"CC(=O)c1cn(CC(=O)N2C[C@H](F)C[C@H]2C(=O)NCc2cccc(Cl)c2F)c2ccc(OS(=O)(=O)C(F)(F)F)cc12 [Compound 9, 3-acetyl-1-(2-((2S,4R)-2-(3-chloro-2-fluorobenzylcarbamoyl)-4-fluoropyrrolidin-1-yl)-2-oxoethyl)-1H-indol-5-yl trifluoromethanesulfonate]",< 1000 nM
11,"CC(=O)c1cn(CC(=O)N2C[C@H](F)C[C@H]2C(=O)NCc2cccc(Cl)c2F)c2cc(OS(=O)(=O)C(F)(F)F)ccc12 [Compound 2, 3-acetyl-1-(2-((2S,4R)-2-(3-chloro-2-fluorobenzylcarbamoyl)-4-fluoropyrrolidin-1-yl)-2-oxoethyl)-1H-indol-6-yl trifluoromethanesulfonate]",< 1000 nM
12,CC(C)(C)NS(=O)(=O)COc1ccc2c(C(N)=O)nn(CC(=O)N3C[C@H](F)C[C@H]3C(=O)Nc3cccc(-c4ccccc4Cl)c3F)c2c1 [Compound 28],< 1000 nM
13,"CCOP(=O)(COc1ccc2c(c1)c(C(C)=O)cn2CC(=O)N1C[C@H](F)C[C@H]1C(=O)NCc1cccc(Cl)c1F)OCC [Compound 10, Diethyl(((3-acetyl-1-(2-((2S,4R)-2-((3-chloro-2-fluorobenzyl)carbamoyl)-4-fluoropyrrolidin-1-yl)-2-oxoethyl)-1H-indol-5-yl)oxy)methyl)phosphonate]",< 1000 nM

# Same assay, conditions: Table 2; Human Factor D 80 nM, substrate Z-L-Lys-SBzl; read-out: IC50
row,SMILES,IC50
1,"CO[C@@H]1CO[C@H]2[C@@H]1OC[C@H]2Oc1ccc2c(c1)c(C(C)=O)cn2CC(=O)N1C[C@H](F)C[C@H]1C(=O)Nc1cccc(-c2ccccc2Cl)c1F [Compound 46, (2S,4R)-1-(2-(3-acetyl-5-((3R,3aR,6R,6aR)-6-methoxyhexahydrofuro[3,2-b]furan-3-yloxy)-1H-indol-1-yl)acetyl)-N-(2′-chloro-2-fluorobiphenyl-3-yl)-4-fluoropyrrolidine-2-carboxamide]",< 1000 nM

# Same assay, conditions: Table 3; Human Factor D 80 nM, substrate Z-L-Lys-SBzl; read-out: (IC50 (Stars))
row,SMILES,IC50
1,"CC(=O)c1nn(CC(=O)N2C[C@H](F)C[C@H]2C(=O)Nc2cccc(Br)n2)c2cc(OCP(=O)(O)O)ccc12 [Compound 201, (((3-acetyl-1-(2-((2S,4R)-2-((6-bromopyridin-2-yl)carbamoyl)-4-fluoropyrrolidin-1-yl)-2-oxoethyl)-1H-indazol-6-yl)oxy)methyl)phosphonic acid]",< 1000 nM
2,"CC(=O)c1cn(CC(=O)N2C[C@H](F)C[C@H]2C(=O)Nc2cccc(-c3ccccc3Cl)c2F)c2ccc(OCC[S+]([O-])CC(C)(CO)CO)cc12 (stereo partly drawn) [Compound 251, (2S,4R)-1-(2-(3-acetyl-5-(2-(3-hydroxy-2-(hydroxymethyl)-2-methyl-propylsulfinyl)ethoxy)-1H-indol-1-yl)acetyl)-N-(2′-chloro-2-fluorobiphenyl-3-yl)-4-fluoropyrrolidine-2-carboxamide]",< 1000 nM
3,"CC(=O)c1nn(CC(=O)N2[C@@H]3C[C@@H]3C[C@H]2C(=O)Nc2cncc(Br)n2)c2ccc(Oc3ncc(C)cn3)cc12 [Compound 170, (1R,3S,5R)-2-(2-(3-Acetyl-5-((5-methylpyrimidin-2-yl)oxy)-1H-indazol-1-yl)acetyl)-N-(6-bromopyrazin-2-yl)-2-azabicyclo[3.1.0]hexane-3-carboxamide]",< 1000 nM
4,"CC(=O)c1cn(CC(=O)N2C[C@H](F)C[C@H]2C(=O)Nc2cncc(Br)n2)c2ccc(Oc3ncc(C)cn3)cc12 [Compound 166, (2S,4R)-1-(2-(3-Acetyl-5-((5-methylpyrimidin-2-yl)oxy)-1H-indol-1-yl)acetyl)-N-(6-bromopyrazin-2-yl)-4-fluoropyrrolidine-2-carboxamide]",< 1000 nM
5,"CC(=O)c1cn(CC(=O)N2C[C@H](F)C[C@H]2C(=O)NCCCc2ccccc2)c2ccc(OCS(N)(=O)=O)cc12 [Compound 136, (2S,4R)-1-(2-(3-Acetyl-5-(sulfamoylmethoxy)-1H-indol-1-yl)acetyl)-4-fluoro-N-(3-phenylpropyl)pyrrolidine-2-carboxamide]",< 1000 nM
6,"CC(=O)c1cn(CC(=O)N2C[C@H](F)C[C@H]2C(=O)NCCCc2ccccc2)c2ccc(OCS(=O)(=O)NC(C)(C)C)cc12 [Compound 135, (2S,4R)-1-(2-(3-Acetyl-5-((N-(tert-butyl)sulfamoyl)methoxy)-1H-indol-1-yl)acetyl)-4-fluoro-N-(3-phenylpropyl)pyrrolidine-2-carboxamide]",< 1000 nM
7,"Cc1cccc(NC(=O)[C@@H]2[C@H]3CC[C@H](C3)N2C(=O)Cn2cc(C(N)=O)c3cc(OCS(N)(=O)=O)ccc32)n1 [Compound 187, 1-(2-((1R,3S,4S)-3-((6-Methylpyridin-2-yl)carbamoyl)-2-azabicyclo[2.2.1]heptan-2-yl)-2-oxoethyl)-5-(sulfamoylmethoxy)-1H-indole-3-carboxamide]",> 10000 nM
8,"CC(=O)c1nn(CC(=O)N2C[C@H](F)C[C@H]2C(=O)Nc2cncc(Br)n2)c2ccc(Oc3nccc(C)n3)cc12 [Compound 168, (2S,4R)-1-(2-(3-Acetyl-5-((4-methylpyrimidin-2-yl)oxy)-1H-indazol-1-yl)acetyl)-N-(6-bromopyrazin-2-yl)-4-fluoropyrrolidine-2-carboxamide]",< 1000 nM
9,"CC(=O)c1nn(CC(=O)N2C[C@H](F)C[C@H]2C(=O)Nc2cccc(Br)n2)c2ccc(Oc3cc(C)ncn3)cc12 [Compound 180, (2S,4R)-1-(2-(3-Acetyl-5-((6-methylpyrimidin-4-yl)oxy)-1H-indazol-1-yl)acetyl)-N-(6-bromopyridin-2-yl)-4-fluoropyrrolidine-2-carboxamide]",< 1000 nM

# Reference: patent US10385097B2, “Ether compounds for treatment of medical disorders” (Achillion Pharmaceuticals, Inc., priority 2015, dated 2019)
